SMILES strings stand for the structures.

Test system in one data set: not listed separately
Description: Log P by HPLC on reversed phase columns, method [a] (EEC directive 79/831 Annex V.A8). It is filed as physicochemical. The conditions noted are these: log P determined according to method [a] (HPLC on reversed phase columns). The gist of the method:
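Log P calibrated with C3–C16 straight-chain alkan-2-ones of known Log P, interpolating linearly between retention times. Method per EEC 79/831 Annex V.A8: reversed-phase LC-UV in the acidic range, water/0.1% formic acid and acetonitrile gradient from 10% to 95% acetonitrile.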
Molecule `CN(C(=O)c1ccc(-c2nnc(C(F)F)o2)cn1)c1ccccc1` [Example I-049] showed a log partition coefficient (logP) of 2.05. Regarding `CC(Nc1ccc(-c2nnc(C(F)F)o2)cn1)c1ccc(F)cc1` (stereo not drawn) [Example I-052], the logP turned out to be 2.95.

Consider `FC(F)c1nnc(-c2ccc(C(F)(F)F)nc2)o1` [Example I-037], for which the lipophilicity (logP) is reported as 2.39.

With `CN(C(=O)c1ccc(-c2nnc(C(F)F)o2)cc1)c1ccccc1` [Example I-022], the log partition coefficient (logP) came to 2.46. The logP values of the last two molecules are within 0.2 log units of each other. The same measure, in the same setting: the same measure for `Fc1ccccc1C1(Nc2ccc(-c3nnc(C(F)(F)Cl)o3)cn2)CC1` [Example I-057]: 3.81; for `FC(F)c1nnc(-c2ccc(N3CCOCC3)nc2)o1` [Example I-041]: 1.91. The molecule `FC(F)c1nnc(-c2cnc(NCC3CC3)nc2)o1` [Example I-067] showed a logP of 2.16.

Regarding `FC(F)c1nnc(-c2ccc(-c3ccccc3)cc2)o1` [Example I-007], the logP is reported as 3.57.

As to `Fc1cc(-c2ncc(-c3nnc(C(F)F)o3)cn2)ccn1` [Example I-079], the log partition coefficient (logP) came to 2.33.

`FC(F)c1nnc(-c2ccc(-n3cccn3)nc2)o1` [Example I-036] came in with a logP of 2.31. In turn, `COCCNC(=O)c1ccc(-c2nnc(C(F)(F)F)o2)cc1` [Example I-020] showed a lipophilicity (logP) of 2.04. Consider `O=C(O)c1ccc(-c2nnc(C(F)(F)F)s2)cc1` [Example I-008], for which the logP worked out at 2.41.

Still in this data set, the particulars now being: reversed phase HPLC column; log P determined according to method [a] (HPLC on reversed phase columns); read-out: logP.
In the case of `Fc1ccc(CNc2ncc(-c3nnc(C(F)F)o3)cn2)cc1` [I.112, 5-[5-(difluoromethyl)-1,3,4-oxadiazol-2-yl]-N-(4-fluorobenzyl)pyrimidin-2-amine], the chromatographic logP came out at 2.64. On to `FC(F)c1nnc(-c2cnc(OC3(c4ccccn4)COC3)nc2)o1` [I.143, 5-[5-(difluoromethyl)-1,3,4-oxadiazol-2-yl]-2-{[3-(pyridin-2-yl)oxetan-3-yl]oxy}pyrimidine], for which the chromatographic logP was found to be 1.66. In the case of `FC(F)c1nnc(-c2cnc(NC3(c4ccccc4Cl)CC3)nc2)o1` [I.163, N-[1-(2-chlorophenyl)cyclopropyl]-5-[5-(difluoromethyl)-1,3,4-oxadiazol-2-yl]pyrimidin-2-amine], the chromatographic logP amounted to 3.34. As to `COC(=O)C1(Nc2ncc(-c3nnc(C(F)F)o3)cn2)CC1` [I.104, methyl 1-({5-[5-(difluoromethyl)-1,3,4-oxadiazol-2-yl]pyrimidin-2-yl}amino)cyclopropanecarboxylate], the chromatographic logP is 1.64.

Take `FC(F)c1nnc(-c2cnc(-c3cccc(Cl)c3)nc2)o1` [I.100, 2-(3-chlorophenyl)-5-[5-(difluoromethyl)-1,3,4-oxadiazol-2-yl]pyrimidine]: the chromatographic logP turned out to be 4.21. In the case of `FC(F)c1nnc(-c2cnc(NCc3ccccc3Cl)nc2)o1` [I.128, N-(2-chlorobenzyl)-5-[5-(difluoromethyl)-1,3,4-oxadiazol-2-yl]pyrimidin-2-amine], the chromatographic logP was found to be 2.95.

Staying with this data set, now noted: reversed phase HPLC column; method [a], HPLC on reversed phase columns; read-out: logP.
For the molecule `FC(F)c1nnc(-c2cnc(NC3(Cc4ccccc4)CC3)nc2)o1` [I.201, N-(1-benzylcyclopropyl)-5-[5-(difluoromethyl)-1,3,4-oxadiazol-2-yl]pyrimidin-2-amine], the chromatographic logP worked out at 2.99. Still for that read-out and setting: to `FC(F)c1nnc(-c2cnc(NC(c3ccccc3)c3ccccc3)nc2)o1` [I.238, 5-[5-(difluoromethyl)-1,3,4-oxadiazol-2-yl]-N-(diphenylmethyl)pyrimidin-2-amine] belongs 3.52; to `FC(F)c1nnc(-c2cnc(NC3(c4ccc(C(F)(F)F)cc4)CC3)nc2)o1` [I.250, 5-[5-(difluoromethyl)-1,3,4-oxadiazol-2-yl]-N-{1-[4-(trifluoromethyl)phenyl]cyclopropyl}pyrimidin-2-amine], 3.25. Same read-out and setting: the same measure for `CC(C)(Nc1ncc(-c2nnc(C(F)F)o2)cn1)c1ccccn1` [I.198, 5-[5-(difluoromethyl)-1,3,4-oxadiazol-2-yl]-N-[2-(pyridin-2-yl)propan-2-yl]pyrimidin-2-amine]: 1.11; for `CC(Nc1ncc(-c2nnc(C(F)F)o2)cn1)c1ccc2ccccc2n1` (racemic) [I.233, 5-[5-(difluoromethyl)-1,3,4-oxadiazol-2-yl]-N-[(1RS)-1-(quinolin-2-yl)ethyl]pyrimidin-2-amine]: 2.04. In the case of `Fc1ccc(CCNc2ncc(-c3nnc(C(F)F)o3)cn2)cc1` [I.200, 5-[5-(difluoromethyl)-1,3,4-oxadiazol-2-yl]-N-[2-(4-fluorophenyl)ethyl]pyrimidin-2-amine], the chromatographic logP was found to be 2.84. Take `O=C(c1ccc(F)cc1F)N(C(=O)c1ccc(F)cc1F)c1ncc(-c2nnc(C(F)F)o2)cn1` [I.185, N-(2,4-difluorobenzoyl)-N-{5-[5-(difluoromethyl)-1,3,4-oxadiazol-2-yl]pyrimidin-2-yl}-2,4-difluorobenzamide]: the chromatographic logP amounted to 3.59.

On to `CC(Nc1ncc(-c2nnc(C(F)F)o2)cn1)c1cccc(Cl)c1` (racemic) [I.213, N-[(1RS)-1-(3-chlorophenyl)ethyl]-5-[5-(difluoromethyl)-1,3,4-oxadiazol-2-yl]pyrimidin-2-amine], for which the chromatographic logP was 3.2. Take `FC(F)c1nnc(-c2cnc(NC3(c4ccc(Cl)c(Cl)c4)CC3)nc2)o1` [I.252, N-[1-(3,4-dichlorophenyl)cyclopropyl]-5-[5-(difluoromethyl)-1,3,4-oxadiazol-2-yl]pyrimidin-2-amine]: the chromatographic logP is 3.43. Turning to `C#CCN(c1ncc(-c2nnc(C(F)F)o2)cn1)C1(c2ccccc2F)CC1` [I.241, 5-[5-(difluoromethyl)-1,3,4-oxadiazol-2-yl]-N-[1-(2-fluorophenyl)cyclopropyl]-N-(prop-2-yn-1-yl)pyrimidin-2-amine], the chromatographic logP worked out at 4.09. Same read-out and setting: to `CC(Nc1ncc(-c2nnc(C(F)F)o2)cn1)c1ccccc1C(F)(F)F` (racemic) [I.240, 5-[5-(difluoromethyl)-1,3,4-oxadiazol-2-yl]-N-{(1RS)-1-[2-(trifluoromethyl)phenyl]ethyl}pyrimidin-2-amine] belongs 3.42; to `Fc1ccc(C(F)(F)CNc2ncc(-c3nnc(C(F)F)o3)cn2)cc1` [I.234, N-[2,2-difluoro-2-(4-fluorophenyl)ethyl]-5-[5-(difluoromethyl)-1,3,4-oxadiazol-2-yl]pyrimidin-2-amine], 2.9; to `CC(C)(Nc1ncc(-c2nnc(C(F)F)o2)cn1)c1cccnc1` [I.199, 5-[5-(difluoromethyl)-1,3,4-oxadiazol-2-yl]-N-[2-(pyridin-3-yl)propan-2-yl]pyrimidin-2-amine], 0.91. On to `Cc1ccc(C(C)(C)Nc2ncc(-c3nnc(C(F)F)o3)cn2)cc1` [I.204, 5-[5-(difluoromethyl)-1,3,4-oxadiazol-2-yl]-N-[2-(4-methylphenyl)propan-2-yl]pyrimidin-2-amine], for which the chromatographic logP is 3.46. With `CC(Nc1ncc(-c2nnc(C(F)F)o2)cn1)c1ccccn1` (racemic) [I.189, 5-[5-(difluoromethyl)-1,3,4-oxadiazol-2-yl]-N-[(1RS)-1-(pyridin-2-yl)ethyl]pyrimidin-2-amine], the chromatographic logP worked out at 1. The same measure, in the same setting: to `FC(F)c1nnc(-c2cnc(NC3(c4cccc(Cl)c4)CC3)nc2)o1` [I.227, N-[1-(3-chlorophenyl)cyclopropyl]-5-[5-(difluoromethyl)-1,3,4-oxadiazol-2-yl]pyrimidin-2-amine] belongs 3.11; to `CC(Nc1ncc(-c2nnc(C(F)F)o2)cn1)c1cccs1` (racemic) [I.192, 5-[5-(difluoromethyl)-1,3,4-oxadiazol-2-yl]-N-[(1RS)-1-(2-thienyl)ethyl]pyrimidin-2-amine], 2.7; to `CC(C)(Cc1ccc(F)cc1)Nc1ncc(-c2nnc(C(F)F)o2)cn1` [I.223, 5-[5-(difluoromethyl)-1,3,4-oxadiazol-2-yl]-N-[1-(4-fluorophenyl)-2-methylpropan-2-yl]pyrimidin-2-amine], 3.79.

In another data set the test system is Colletotrichum lindemuthianum. Description: Example B: in vitro cell test, spore germination and mycelium growth in liquid culture. It is filed as cell-based. The conditions noted are these: 144 h, 20 ppm of tested compound, 6 days incubation, read-out: efficacy (inhibition of fungal growth). The protocol: • Solvent: dimethyl sulfoxide Culture medium: 14.6 g anhydrous D-glucose (VWR), • 7.1 g mycological peptone (Oxoid), • 1.4 g granulated yeast extract (Merck), QSP 1 liter Inoculum: spore suspension The tested compounds were solubilized in dimethyl sulfoxide and the solution used to prepare the required range of concentrations. The final concentration of dimethyl sulfoxide used in the assay was ≤1%. A spore suspension of Colletotrichum lindemuthianum was prepared and diluted to the desired spore density. The compounds were evaluated for their ability to inhibit spore germination and mycelium growth in liquid culture assay. The compounds were added in the desired concentration to the culture medium with spores. After 6 days incubation, fungi-toxicity of compounds was determined by spectrometric measurement of mycelium growth. Inhibition of fungal growth was determined by comparing the absorbance values in wells containing the tested compounds with the absorbance in control wells without tested compounds.
Consider `Fc1ccc(CNc2ncc(-c3nnc(C(F)F)o3)cn2)cc1` [I.112, 5-[5-(difluoromethyl)-1,3,4-oxadiazol-2-yl]-N-(4-fluorobenzyl)pyrimidin-2-amine], for which the inhibition of growth at 20 µg/mL fell in the range of 70 to 79%.

For the molecule `Fc1ccccc1C1(Nc2ccc(-c3nnc(C(F)F)o3)cc2)CC1` [I.025, 4-[5-(difluoromethyl)-1,3,4-oxadiazol-2-yl]-N-[1-(2-fluorophenyl)cyclopropyl]aniline], the inhibition of growth at 20 µg/mL was in the range of 80 to 89%. Turning to `C#CCNc1ncc(-c2nnc(C(F)F)o2)cn1` [I.063, 5-[5-(difluoromethyl)-1,3,4-oxadiazol-2-yl]-N-(prop-2-yn-1-yl)pyrimidin-2-amine], the inhibition of growth at 20 µg/mL lay within 90 to 100%. Same read-out and setting: the same measure for `FC(F)c1nnc(-c2cnc(NCC3CC3)nc2)o1` [I.067, N-(cyclopropylmethyl)-5-[5-(difluoromethyl)-1,3,4-oxadiazol-2-yl]pyrimidin-2-amine]: 80 to 89%; for `FC(F)c1nnc(-c2cnc(Cl)nc2)o1` [I.061, 2-chloro-5-[5-(difluoromethyl)-1,3,4-oxadiazol-2-yl]pyrimidine]: 90 to 100%; for `COc1ccc(-c2ncc(-c3nnc(C(F)F)o3)cn2)cc1` [I.089, 5-[5-(difluoromethyl)-1,3,4-oxadiazol-2-yl]-2-(4-methoxyphenyl)pyrimidine]: 90 to 100%.

A word on the logP: it is the decadic logarithm of the partition coefficient of the neutral form, usually between octanol and water. Low values mean a more hydrophilic compound, high ones a more lipophilic compound. For orientation: inhibition of growth means how much of the control response was suppressed.
